Where “and” joins values, the source holds several entries; their conditions need not be identical. Equal values may be shown once. Where no end group is shown, it is not given here. [ ]: non-standard residue; d: D form. The star is where a group is joined. FITC = O=C1OC2(c3ccc(O)cc3Oc3cc(O)ccc32)c2ccc(NC(=S)*)cc21; Ahx = NCCCCCC(=O)O
Legend:
GST-Bcl-2 [1] = target: T1, GST-Bcl-2 (Homo sapiens, UniProt P10415); assay: biochemical
GST-Bcl-B [2] = target: T2, GST-Bcl-B (Homo sapiens, UniProt Q9HD36); assay: Bcl-B/FITC-TR3-r8 fluorescence polarization competition (displacement) assay, HTS and dose-response; conditions: for Bcl-B H Coefficient: Hill coefficient of Bcl-B dose-response curve
T2 sequence (Q9HD36 1-182 limits assumed): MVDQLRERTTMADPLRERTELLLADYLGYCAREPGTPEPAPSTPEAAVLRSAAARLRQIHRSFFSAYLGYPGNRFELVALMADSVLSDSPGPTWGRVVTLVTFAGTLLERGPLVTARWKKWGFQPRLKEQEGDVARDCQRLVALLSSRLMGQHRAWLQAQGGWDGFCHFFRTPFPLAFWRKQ

GST-Bcl-B [3] = target: T2, GST-Bcl-B; assay: biochemical
GST-Bcl-2 [4] = target: T1, GST-Bcl-2; assay: Bcl-2/FITC-TR3 fluorescence polarization competition assay (PBS + Tween-20); conditions: Hill coefficient of Bcl-2 dose-response curve
GST-Hsp70 = GST-Hsp70 (Homo sapiens, UniProt P0DMV8); assay: FITC-ATP/GST-Hsp70 fluorescence polarization counter-screen; assay type: binding; conditions: HSP/FITC-ATP counter screen
Protocol: Dose-response curves were then generated (fluorescent compounds were eliminated), followed by counter-screening using a biologically unrelated FPA (GST-Hsp70/FITC-ATP).
A number of assays were then performed to eliminate non-specific or irreproducible hits (FIG. 21). […] Second, compound dose-response curves were generated using the fluorescence polarization assay. […] Finally, 1D-NMR was used to test the compounds for binding to GST-Bcl-B versus GST (as a negative control) (FIG. 22).

[5] = target: GST-Bfl-1 ΔTM [GST: P08515]; assay: Bfl-1 FPA plate, well A12: FITC-BH3 and GST-Bfl-1 without compound (peptide-alone wells 43-52 mP)
[6] = target: GST-Bfl-1 ΔTM [GST: P08515]; assay: Bfl-1 FPA plate, well H12: FITC-BH3 and GST-Bfl-1 without compound
[7] = target: GST-Bfl-1 ΔTM [GST: P08515]; assay: Bfl-1 FPA plate, well C12: FITC-BH3 and GST-Bfl-1 without compound
[8] = target: GST-Bfl-1 ΔTM [GST: P08515]; assay: Bfl-1 FPA plate, well G12: FITC-BH3 and GST-Bfl-1 without compound
[9] = target: GST-Bfl-1 ΔTM [GST: P08515]; assay: Bfl-1 FPA plate, well D12: FITC-BH3 and GST-Bfl-1 without compound
[10] = target: GST-Bfl-1 ΔTM [GST: P08515]; assay: Bfl-1 FPA plate, well B12: FITC-BH3 and GST-Bfl-1 without compound
[11] = target: GST-Bfl-1 ΔTM [GST: P08515]; assay: Bfl-1 FPA plate, well F12: FITC-BH3 and GST-Bfl-1 without compound
[12] = target: T3, GST (glutathione S-transferase control protein) (UniProt P08515 1-218 = GST); assay: fluorescence polarization, 5 nM FITC-Bid BH3 with various concentrations of GST
T3 construct: Negative control protein; also called control GST protein

[13] = target: GST-Bfl-1 ΔTM [GST: P08515]; assay: Bfl-1 FPA plate, well E12: FITC-BH3 and GST-Bfl-1 without compound
[14] = target: GST-Bcl-B ΔTM [GST: P08515]; assay: fluorescence polarization, 20 nM FITC-TR3-r8 with increasing GST-Bcl-B, HEPES/β-glycerophosphate buffer
[15] = target: GST-Bcl-B ΔTM [GST: P08515]; assay: fluorescence polarization, 20 nM FITC-TR3-r8 with increasing GST-Bcl-B
[16] = target: GST-Bcl-2 ΔTM [GST: P08515]; assay: fluorescence polarization, direct binding to GST-Bcl-2
[17] = target: GST-Bcl-B ΔTM [GST: P08515]; assay: fluorescence polarization binding curves

T1 sequence (P10415 1-218 limits assumed): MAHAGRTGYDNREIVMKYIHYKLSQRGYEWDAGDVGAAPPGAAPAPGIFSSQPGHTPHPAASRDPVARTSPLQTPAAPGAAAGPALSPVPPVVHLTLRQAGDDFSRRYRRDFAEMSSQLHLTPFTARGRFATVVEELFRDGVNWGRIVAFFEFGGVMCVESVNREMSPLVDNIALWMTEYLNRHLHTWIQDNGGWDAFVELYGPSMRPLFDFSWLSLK
GST-Hsp70, sequence (P0DMV8 whole entry): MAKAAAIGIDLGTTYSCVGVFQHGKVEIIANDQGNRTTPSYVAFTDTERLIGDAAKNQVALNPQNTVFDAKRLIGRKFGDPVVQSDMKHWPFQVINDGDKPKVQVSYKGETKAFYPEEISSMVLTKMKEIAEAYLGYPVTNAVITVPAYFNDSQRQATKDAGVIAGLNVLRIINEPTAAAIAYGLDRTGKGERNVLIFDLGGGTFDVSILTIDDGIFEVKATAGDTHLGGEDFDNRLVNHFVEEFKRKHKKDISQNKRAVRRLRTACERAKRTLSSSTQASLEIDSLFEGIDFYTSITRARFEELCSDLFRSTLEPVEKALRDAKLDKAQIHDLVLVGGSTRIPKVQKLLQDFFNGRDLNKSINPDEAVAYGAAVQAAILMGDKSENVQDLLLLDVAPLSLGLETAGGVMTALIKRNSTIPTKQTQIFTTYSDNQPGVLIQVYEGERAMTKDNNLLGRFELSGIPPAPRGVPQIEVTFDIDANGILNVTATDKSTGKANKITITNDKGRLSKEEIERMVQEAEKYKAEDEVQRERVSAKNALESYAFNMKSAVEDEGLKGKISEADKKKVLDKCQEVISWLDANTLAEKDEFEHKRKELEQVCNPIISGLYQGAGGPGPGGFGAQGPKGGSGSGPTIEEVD
T3 sequence (P08515 whole entry): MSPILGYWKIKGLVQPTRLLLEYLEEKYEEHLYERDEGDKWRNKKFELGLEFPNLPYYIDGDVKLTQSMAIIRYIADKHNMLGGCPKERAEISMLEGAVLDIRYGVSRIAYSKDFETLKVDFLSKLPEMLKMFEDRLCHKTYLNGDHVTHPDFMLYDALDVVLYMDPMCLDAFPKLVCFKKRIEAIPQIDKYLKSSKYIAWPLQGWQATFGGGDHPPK

O=S(=O)(O)c1cccc2cccc(Nc3ccccc3)c12 [Compound 5255876]
IC50 (GST-Bcl-2 [1]): 12600 nM | IC50 (GST-Bcl-B [2]; Bcl-B IC50 (g/L)): 2.94 µM | IC50 (GST-Bcl-B [2]; Bcl-B IC50 (uM)): 2.95 µM | Bcl-B H Coefficient (GST-Bcl-B [2]): 2.628

O=C(O)Cc1c[nH]c2ccc(O)cc12 [Compound 5106705]
IC50 (GST-Bcl-B [3]): 7880 nM and 7840 nM | IC50 (GST-Bcl-2 [1]): 9830 nM and 9780 nM | Bcl-B H Coefficient (GST-Bcl-B [2]): 3.385

CC1=C(C#N)c2nc(N)c(C#N)c(C)c2/C1=C/c1ccc(-c2ccc(C(=O)O)c(Cl)c2)o1 [Compound 6025233]
IC50 (GST-Bcl-B [3]): 1650 nM | Bcl-2 H Coefficient (GST-Bcl-2 [4]): 3.081 | HSP70 IC50 (Hill) (GST-Hsp70): high | Bcl-B H Coefficient (GST-Bcl-B [2]): 1.206

Cc1ccc(C)n1-c1ccc(Cl)cc1C(=O)O [Compound 5950160]
IC50 (GST-Bcl-B [3]): 942 nM | Bcl-2 H Coefficient (GST-Bcl-2 [4]): 1.457 | HSP70 IC50 (Hill) (GST-Hsp70): high | Bcl-B H Coefficient (GST-Bcl-B [2]): 0.9279

{FITC-Ahx}-EDIIRNIARHLAQVGDSMDR-NH2 (also called FITC-BH3 peptide; FITC-BH3) [FITC-Bid BH3 peptide]
fluorescence polarization (mP) [5]: 148 mP | fluorescence polarization (mP) [6]: 163 mP | fluorescence polarization (mP) [7]: 166 mP | fluorescence polarization (mP) [8]: 155 mP | fluorescence polarization (mP) [9]: 158 mP | fluorescence polarization (mP) [10]: 160 mP | fluorescence polarization (mP) [11]: 163 mP | binding result [12]: no binding | fluorescence polarization (mP) [13]: 157 mP

{FITC-Ahx}-FSRSLHSLLG[Ahx][dR][dR][dR][dR][dR][dR][dR][dR] [FITC-TR3-9-r8]
Kd [14]: 20 nM | Kd [15]: 20 nM | Kd [16]: < 100 nM | fold increase of affinity in HβG buffer against PBS buffer [17]: 5 to 10 fold
